These results are taken from paper PMC2365101, “Anti-Inflammatory Activity of (Polyphenolic)-Sulfonates and Their Sodium Salts in Rodents” (Metal-Based Drugs, 1998).

The test system of experiment [1] is J774 A1 mouse macrophages adhesion to L929 fibroblasts. In words: Adhesion of J-774 A1 mouse macrophages to confluent L929 fibroblasts. Type of experiment: cell-based. The following applies: for Adhesion, Percent of Control: N=6.
Experiment [2] relates to CF1 male mice, carrageenan induced edema. The experiment is described as follows: Anti-inflammatory screen in mice (carrageenan induced foot edema). The format is in vivo. To be noted: for Percent of Control (induced edema): CF1 male mice, N=6. The text has this: Few reports in the literature indicate interaction at these receptor sites other than by peptides or antibodies. […] Blocking these receptors is desirable because the entire inflammation cascade of events is triggered by the early release of TNFa and IL-1. […] Radioisotopes were obtained from New England Nuclear [Dupont, Boston, MA] and substrates and co- factors were obtained from Sigma Chemical Co. [St. Louis, MO]. […] Cell lines were obtained from American Type Culture Collection [Rockville, MD]. In Vivo Tests Anti-inflammatory screen in mice: Male CF male mice weighing 28-32g obtained from Jackson Lab. […] Evaluation of the induced edema was made by injecting 2% carrageenan in 0.9% saline into the plantar region of the foot. The opposite foot injected with 0.9% isotonic saline was used as a base line. […] Salmonella abortus equi [Lot # 69F4003] […] Drugs from 2 to 16 mg/kg, I.P. were administered 2 hr prior and 2 hr post-injection of the LPS and then subsequently for every 24 hr for the length ofthe animals' lives. Deaths were recorded every 12 hr and continued for 96 hr. […] In vitro TNFa andIL-1 Measurements and Cellular Regulation IC-21 mouse macrophages were maintained in RPMI-1640 + 10% FCS + P/S. After the cells had grown to confluency, E. coli LPS at 10 Ixg/ml was added to the medium. Agents were incubated at 12.5 to 100 µM final concentration for 18 hr. The medium (100 btl) was collected for TNFCt determinations. Interleukin-1 [IL-1] release was determined using P388D1 cells which were maintained in RPMI-1640 + 10% FCS + P/S. The L929 bioassay was used to quantitate the TNF and the IL-1 levels. The L929 mouse fibroblasts were grown in DMEM + 10% FCS + P/S to confluency in 96 well plates and incubated with 100 tl ofmedium from […] or P388D cells after 18 hr. The cells were stained with 0.2% crystal violet in 20% MeOH and read at 580 nm using a Molecular Devices scanner (SOFT-max program). High Affinity Binding to Receptors on L929-106 Cells Two laCi of 125I-TNFct (human recombinant, 30 mCi/tg New England Nuclear) or 125I-IL-1 (70-120[.t Ci/lxg,New England Nuclear) was added to confluency L929 cells for 90 min or 5 hr, respectively with 25, 50 and 100 tM of the test compounds 12]. The cells were washed repeatedly with isotonic saline, pH.7.2 and aliquots counted. Prostaglandin cylcooxygenase activity Mouse J774AI macrophages maintained in Dulbecco's modified Eagle's medium + 15% FCS + P/S. Cells (5 x 106) were incubated with agents (5 to 100 ].tM final concentration) and 3H-arachidonic acid (100 Ci/mol) for 60 min at 37C in a CO2 incubator. The reaction was terminated with 2N HCI, the mixture extracted 2 X with ether, and the organic layer evaporated.

Experiment [3] deals with J774-A1 macrophage elastase. In words: Elastase activity in J774-A1 macrophages. Type of experiment: biochemical, mouse.
In experiment [4] the test system is CF1 male mice, LPS Salmonella abortus equi induced death. The experiment is described as follows: Protection against septic shock (LPS induced endotoxic shock). Type of experiment: in vivo. The following applies: for Percent Survival at 52 hr: LPS 10 mg/kg, CF1 male mice, N=6; for protection from LPS induced death: 16 mg/kg. The text has this: Few reports in the literature indicate interaction at these receptor sites other than by peptides or antibodies. […] Blocking these receptors is desirable because the entire inflammation cascade of events is triggered by the early release of TNFa and IL-1. […] Radioisotopes were obtained from New England Nuclear [Dupont, Boston, MA] and substrates and co- factors were obtained from Sigma Chemical Co. [St. Louis, MO]. […] Cell lines were obtained from American Type Culture Collection [Rockville, MD]. In Vivo Tests Anti-inflammatory screen in mice: Male CF male mice weighing 28-32g obtained from Jackson Lab. [Bar Harbor, […]] were used to screen agents at 8 or 16 mg/kg intraperitoneal [I.P.] x 2 administered 3 hr and 30 min prior to administering the irritant, according to Winter's protocol. Evaluation of the induced edema was made by injecting 2% carrageenan in 0.9% saline into the plantar region of the foot. The opposite foot injected with 0.9% isotonic saline was used as a base line. […] Salmonella abortus equi [Lot # 69F4003] […] Drugs from 2 to 16 mg/kg, I.P. were administered 2 hr prior and 2 hr post-injection of the LPS and then subsequently for every 24 hr for the length ofthe animals' lives. Deaths were recorded every 12 hr and continued for 96 hr. […] In vitro TNFa andIL-1 Measurements and Cellular Regulation IC-21 mouse macrophages were maintained in RPMI-1640 + 10% FCS + P/S. After the cells had grown to confluency, E. coli LPS at 10 Ixg/ml was added to the medium. Agents were incubated at 12.5 to 100 µM final concentration for 18 hr. The medium (100 btl) was collected for TNFCt determinations. Interleukin-1 [IL-1] release was determined using P388D1 cells which were maintained in RPMI-1640 + 10% FCS + P/S. The L929 bioassay was used to quantitate the TNF and the IL-1 levels. The L929 mouse fibroblasts were grown in DMEM + 10% FCS + P/S to confluency in 96 well plates and incubated with 100 tl ofmedium from […] or P388D cells after 18 hr. The cells were stained with 0.2% crystal violet in 20% MeOH and read at 580 nm using a Molecular Devices scanner (SOFT-max program). High Affinity Binding to Receptors on L929-106 Cells Two laCi of 125I-TNFct (human recombinant, 30 mCi/tg New England Nuclear) or 125I-IL-1 (70-120[.t Ci/lxg,New England Nuclear) was added to confluency L929 cells for 90 min or 5 hr, respectively with 25, 50 and 100 tM of the test compounds 12]. The cells were washed repeatedly with isotonic saline, pH.7.2 and aliquots counted. Prostaglandin cylcooxygenase activity Mouse J774AI macrophages maintained in Dulbecco's modified Eagle's medium + 15% FCS + P/S. Cells (5 x 106) were incubated with agents (5 to 100 ].tM final concentration) and 3H-arachidonic acid (100 Ci/mol) for 60 min at 37C in a CO2 incubator. The reaction was terminated with 2N HCI, the mixture extracted 2 X with ether, and the organic layer evaporated.

Turning to `COc1c2cc(S(=O)(=O)[O-])cc1Cc1cc(S(=O)(=O)[O-])cc(c1OC)Cc1cc(S(=O)(=O)[O-])cc(c1OC)Cc1cc(S(=O)(=O)[O-])cc(c1OC)Cc1cc(S(=O)(=O)[O-])cc(c1OC)Cc1cc(S(=O)(=O)[O-])cc(c1OC)C2.[Na+].[Na+].[Na+].[Na+].[Na+].[Na+]` [Compound 6], the “Adhesion, Percent of Control” value is reported as 123 + 6% of Control in experiment [1] (5 μM, 2 Hours); 88 + 5% of Control in experiment [1] (5 μM, 5 Hours); 137 + 6% of Control in experiment [1] (5 μM, 90 min); 77 + 6% of Control in experiment [1] (12.5 μM, 2 Hours); 109 + 6% of Control in experiment [1] (12.5 μM, 5 Hours); 133 + 5% of Control in experiment [1] (12.5 μM, 90 min). Also, the “Adhesion, Percent of Control” value in experiment [1] (25 μM, 2 Hours) is given as 118 + 7% of Control; in experiment [1] (25 μM, 5 Hours), 131 + 6% of Control; in experiment [1] (25 μM, 90 min) it was 128 + 7% of Control; in experiment [1] (50 μM, 2 Hours), 122 + 6% of Control; in experiment [1] (50 μM, 5 Hours) it was 119 + 5% of Control; in experiment [1] (50 μM, 90 min), 103 + 7% of Control. For the same molecule, the “Percent of Control (induced edema)” value in experiment [2] (16 mg/Kg X 2, I.P.) is 48+3% of Control. Also, the “reduction of edema” value in experiment [2] (16 mg/kg X 2) was “greater than 40%”. Further, in experiment [3] (120 min), the “IC50 Elastase J774-A1” value is reported as “Increased”. In addition, the “Percent Survival at 52 hr” value in experiment [4] (8 mg/Kg I.P.) was 50%; in experiment [4] (16 mg/Kg I.P.) it was 100%. The “protection from LPS induced death” value in experiment [4] is 100%.

With `CC(=O)Oc1c2cc(S(=O)(=O)[O-])cc1Cc1cc(S(=O)(=O)[O-])cc(c1OC(C)=O)Cc1cc(S(=O)(=O)[O-])cc(c1OC(C)=O)Cc1cc(S(=O)(=O)[O-])cc(c1OC(C)=O)Cc1cc(S(=O)(=O)[O-])cc(c1OC(C)=O)Cc1cc(S(=O)(=O)[O-])cc(c1OC(C)=O)Cc1cc(S(=O)(=O)[O-])cc(c1OC(C)=O)Cc1cc(S(=O)(=O)[O-])cc(c1OC(C)=O)C2.[Na+].[Na+].[Na+].[Na+].[Na+].[Na+].[Na+].[Na+]` [Compound 8], the “Adhesion, Percent of Control” value in experiment [1] (5 μM, 2 Hours) was 73 + 5% of Control; in experiment [1] (5 μM, 5 Hours), 107 + 5% of Control; in experiment [1] (5 μM, 90 min), 136 + 5% of Control; in experiment [1] (12.5 μM, 2 Hours), 61 + 6% of Control; in experiment [1] (12.5 μM, 5 Hours), 106 + 6% of Control; in experiment [1] (12.5 μM, 90 min), 135 + 7% of Control. Further, the “Adhesion, Percent of Control” value in experiment [1] (25 μM, 2 Hours) is 91 + 5% of Control; in experiment [1] (25 μM, 5 Hours), 125 + 7% of Control; in experiment [1] (25 μM, 90 min), 183 + 7% of Control; in experiment [1] (50 μM, 2 Hours) it was 92 + 6% of Control; in experiment [1] (50 μM, 5 Hours), 131 + 7% of Control; in experiment [1] (50 μM, 90 min), 94 + 6% of Control. Also, the “Percent of Control (induced edema)” value was 70 + 6% of Control in experiment [2] (8 mg/Kg X 2, I.P.) and 38+3% of Control in experiment [2] (16 mg/Kg X 2, I.P.). Besides, the IC50 is 10 to 30 µM in experiment [3] (60 min); 24.5 µM in experiment [3] (60 min, listed as #8); 350 µM in experiment [3] (120 min). Moreover, the “Percent Survival at 52 hr” value worked out at 67% in experiment [4] (2 mg/kg I.P.), 67% in experiment [4] (4 mg/Kg I.P.), 67% in experiment [4] (8 mg/Kg I.P.) and 83% in experiment [4] (16 mg/Kg I.P.). For the same molecule, in experiment [4], the “protection from LPS induced death” value worked out at 83%.

Consider “Pentosan sulfate [Pentosan polysulfate, reference compound]”, for which the “Adhesion, Percent of Control” value is 75+7% of Control in experiment [1] (5 μM, 2 Hours); 103+5% of Control in experiment [1] (5 μM, 5 Hours); 329 + 12% of Control in experiment [1] (5 μM, 90 min); 53 + 6% of Control in experiment [1] (12.5 μM, 2 Hours); 108+7% of Control in experiment [1] (12.5 μM, 5 Hours); 363 + 16% of Control in experiment [1] (12.5 μM, 90 min). Further, the “Adhesion, Percent of Control” value is given as 66+ 5% of Control in experiment [1] (25 μM, 2 Hours); 169+6% of Control in experiment [1] (25 μM, 5 Hours); 260 + 9% of Control in experiment [1] (25 μM, 90 min); 110+6% of Control in experiment [1] (50 μM, 2 Hours); 187 + 7% of Control in experiment [1] (50 μM, 5 Hours); 176 +6% of Control in experiment [1] (50 μM, 90 min). In experiment [1] (12.5 μM, 2 hr), the “reduction of J774A1 macrophage adhesion” value turned out to be 47%. The “Percent of Control (induced edema)” value in experiment [2] (16 mg/Kg X 2, I.P.) is on record as 49+4% of Control. Further, the “IC50 Elastase J774-A1” value in experiment [3] (120 min) is “Increased”. Moreover, the entries for the “Percent Survival at 52 hr” value in experiment [4] (8 mg/Kg I.P.) and in experiment [4] (16 mg/Kg I.P.) were 67% and 83%, respectively. Moreover, in experiment [4], the “protection from LPS induced death” value was 83%.
